# Laboratory results published in patent US11905277B1, “2-alkyloxy-6-(2-oxo-2H-1-benzopyran-3-yl)-4-phenylpyridine-3-carbonitrile as an antimicrobial compound” (KING FAISAL UNIVERSITY, priority 2023, dated 2024).
# Columns and labels:
# Bacillus cereus = assay: Agar plate disc-diffusion, antibacterial activity (inhibition zone); format: cell-based; details: nutrient agar, 37° C., 48 h, DMSO zone subtracted
# Description: (§1) The agar plate disc-diffusion method was applied. Sterilized filter papers (6 mm in diameter) were wetted with 10 μL of a solution of 2-ethoxy-6-(2-oxo-2H-1-benzopyran-3-yl)-4-phenylpyridine-3-carbonitrile (1) and 2-methoxy-6-(2-oxo-2H-1-benzopyran-3-yl)-4-phenylpyridine-3-carbonitrile (2) to be tested, containing […], and the discs were allowed to air dry. The discs were then placed onto the surface of agar plates (nutrient agar for bacteria and Sabouraud's dextrose agar for fungi) seeded with the test organism. Each plate contained 15 mL of the agar medium, previously seeded with 0.2 mL of the broth culture of each organism pregrown for 18 hours. The plates were incubated at 37° C. for 48 h, and 72 h for fungi. The inhibition zones were measured in mm. Discs impregnated with DMSO were used as a control, and its inhibition zone was subtracted from the tested compound actual inhibition zone.
# Escherichia coli = assay: as above; format: cell-based; details: nutrient agar, 37° C., 48 h, DMSO zone subtracted
# Description: as §1
# Pseudomonas aeruginosa = assay: as above; format: cell-based; details: nutrient agar, 37° C., 48 h, DMSO zone subtracted
# Description: as §1
# Staphylococcus aureus = assay: as above; format: cell-based; details: nutrient agar, 37° C., 48 h, DMSO zone subtracted
# Description: as §1
# Aspergillus flavus = assay: Agar plate disc-diffusion, antifungal activity (inhibition zone); format: cell-based; details: Sabouraud's dextrose agar, 72 h, DMSO zone subtracted
# Description: as §1
# [1] = tested on: Chrysosporium keratinophilum; assay: as above; format: cell-based; details: Sabouraud's dextrose agar, 72 h, DMSO zone subtracted
# Description: as §1
# different microbes = assay: Antimicrobial testing, overall statement on Tables 1 and 2; format: cell-based; details: summary of Tables 1 and 2; bacteria and fungi tested
# Description: as §1
# Their antibacterial activity was screened against gram positive bacteria namely Bacillus cereus and Staphylococcus aureus and gram-negative bacterial strains namely Pseudomonas aeruginosa and Escherichia coli, while their antifungal activity was screened against Aspergillus flavus and Chrysosporium keratinophilum.
# [2] = A = concentration of comp. = 10,000 μL
# [3] = B = concentration of comp. = 30.000 μL
# [4] = C = concentration of comp. = 50,000 μL
Compound,inhibition zone (Bacillus cereus; [2]) [mm],inhibition zone (Bacillus cereus; [3]) [mm],inhibition zone (Bacillus cereus; [4]) [mm],inhibition zone (Escherichia coli; [2]) [mm],inhibition zone (Escherichia coli; [3]) [mm],inhibition zone (Escherichia coli; [4]) [mm],inhibition zone (Pseudomonas aeruginosa; [2]) [mm],inhibition zone (Pseudomonas aeruginosa; [3]) [mm],inhibition zone (Pseudomonas aeruginosa; [4]) [mm],inhibition zone (Staphylococcus aureus; [2]) [mm],inhibition zone (Staphylococcus aureus; [3]) [mm],inhibition zone (Staphylococcus aureus; [4]) [mm],inhibition zone (Aspergillus flavus; [2]) [mm],inhibition zone (Aspergillus flavus; [3]) [mm],inhibition zone (Aspergillus flavus; [4]) [mm],"inhibition zone [1, 2] [mm]","inhibition zone [1, 3] [mm]","inhibition zone [1, 4] [mm]",antimicrobial activity (in words) (different microbes),melting point [°C]
"O=C(O)c1cn(C2CC2)c2cc(N3CCNCC3)c(F)cc2c1=O [Cip., reference compound]",29,30,42,30,39,60,29,30,53,43,44,53,29,30,42,29,30,53,–,–
"CCOc1nc(-c2cc3ccccc3oc2=O)cc(-c2ccccc2)c1C#N [Compound 1, 2-ethoxy-6-(2-oxo-2H-1-benzopyran-3-yl)-4-phenylpyridine-3-carbonitrile]",31,36,43,38,43,48,25,32,40,11,19,21,29,33,41,22,31,37,high antimicrobial activities,–
"COc1nc(-c2cc3ccccc3oc2=O)cc(-c2ccccc2)c1C#N [Compound 2, 2-methoxy-6-(2-oxo-2H-1-benzopyran-3-yl)-4-phenylpyridine-3-carbonitrile]",33,38,44,37,43,49,25,34,41,15,22,25,17,21,29,31,39,47,high antimicrobial activities,149 to 150
